Measurements from patent US10035800B2 (AbbVie Inc., priority 2013, dated 2018).
Values joined by “and” are separate entries in the source; they are usually repeats but may differ in a detail not shown here. Equal entries are not always repeated. Where two headings read alike, the source gives them in different places. Marks after values point to notes of the source that are not given here.

Tests used:
BRD4 (BDII_E352-M457) = molecular target: T1, BRD4 (BDII_E352-M457) (Homo sapiens, UniProt O60885); assay: TR-FRET bromodomain binding assay, second bromodomain of BRD4; settings: TR-FRET assay protocol G (compound 0.92 μM-15 pM); 30 nM probe
T1 construct: protocol; made in house
In short: (§1)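 Probe displacement by TR-FRET: 8 nM His-BRD4 bromodomain, 1 nM Eu-anti-His, Alexa647 BET-inhibitor probe at 100 nM (BDI) or 30 nM (BDII); 20 mM Na phosphate pH 6.0, 2% DMSO; 1 h RT. Ex 340, Em 495/520. IC50 from 4PL fit; Ki from IC50, probe Kd and probe concentration.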

[1] = system: breast cancer cell line MX-1; assay: MX-1 cell line proliferation assay; type: cell-based; settings: MX-1 cells, 3-day proliferation assay, Cell Titer Glo; read-out: Cellular proliferation: EC50
In short: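 MX-1 cells at 5000/well, in RPMI 1640 with 10% FBS, were exposed to compounds for 3 days. Final concentrations ranged 3 μM–0.1 nM or 1 μM–0.03 nM, in 3-fold steps. Cell Titer Glo luminescence was normalized to DMSO and fitted sigmoidally for EC50; overall MSR 2.1.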

OPM-2 xenograft tumors = settings: SCID-beige mice
Protocol: Xenograft Tumor Growth Inhibition Assay
A suspension of cancer cells (5×10^6 per 0.1 mL) prepared in RPMI culture medium (Invitrogen, Carlsbad, Calif.) was diluted 1:1 with a solution of Matrigel™ (BD Biosciences, Franklin Lakes, N.J.) and inoculated subcutaneously into the right hind flank of female SCID-beige (Charles River Labs) mice. Randomization into treatment and vehicle control groups (8-10/group) occurred when the mean tumor volume reached approximately 250 mm^3. Compounds were formulated in 2.5% DMSO, 10% ethanol, 27.5% PEG 400, 60% Phosol 53 MCT. Administration of compound or vehicle was initiated on the day following randomization and continued for 21 days. Tumors were measured twice a week throughout the treatment period using a pair of calipers and tumor volumes were calculated according to the formula V=L×W^2/2 (V: volume, mm^3; L: length, mm. W: width, mm).

BRD4 (BDI_K57-E168) = molecular target: T2, BRD4 (BDI_K57-E168) (Homo sapiens, UniProt O60885); assay: TR-FRET bromodomain binding assay, first bromodomain of BRD4; settings: TR-FRET assay protocol G (compound 0.92 μM-15 pM); 100 nM probe
T2 construct: BD1: amino acids K57-E168; made in house
In short: as §1

[2] = system: IL-6 (Interleukin-6) production; assay: LPS (lipopolysaccharide) induced IL-6 production mouse assay; type: in vivo, mice; settings: oral administration 1 h before LPS 2.5 mg/kg ip, serum 2 h after LPS, p < 0.05 vs vehicle
Protocol: LPS (Lipopolysaccharide) Induced IL-6 Production Mouse Assay
Compounds of the Examples listed in Table 2 were assayed for their ability to inhibit LPS (lipopolysaccharide) induced IL-6 (Interleukin-6) production in mice. Fox Chase SCID® female mice (Charles Rivers Labs, 5 per group) or CD1 female mice (5 per group) received an intraperitoneal challenge of lipopolysaccharide (2.5 mg/kg, L2630 E. coli 0111:B4) one hour after oral administration of compounds. Mice were euthanized 2 hours after lipopolysaccharide injection, blood was removed by cardiac puncture, and then the serum harvested from the blood samples was frozen at −80° C. On the day of the assay the serum samples were brought to room temperature and then diluted 1:20 in phosphate-buffered saline containing 2% bovine serum albumin. Interleukin-6 measurements were performed using a cytokine assay from Meso Scale Discovery (Gaithersburg, Md.) for mouse serum analysis according to the manufacturer's protocol and read on a SECTOR Imager 6000 (Meso Scale Discovery, Gaithersburg, Md.) instrument. Statistical analysis was performed using Prism software (version 5.0) incorporating Dunnett's one way ANOVA. The IL-6 mean and standard deviation of the group of vehicle treated animals were compared with the IL-6 mean and standard deviation of the group treated with drug. A p value <0.05 means that there is less than a 5% probability that the mean values in the two groups are equal.

Row | SMILES | Ki (BRD4 (BDII_E352-M457)) [nM] | EC50 [1] [nM] | Ki (BRD4 (BDI_K57-E168)) [nM] | % inhibition of LPS induced IL-6 production ([2]; mouse strain CD1) [%] | further results
1 | Cn1cc2c3c(c[nH]c3c1=O)CN(C1CCC(NC(=O)OC(C)(C)C)CC1)c1ccc(CS(C)(=O)=O)cc1-2 (mixture of isomers) [Example 196] | 1.72 | 3.82 | 1.14 | 79 | % TGI (OPM-2 xenograft tumors; 2.5 mg/kg PO, QD x21): 84*** %; % TGI (OPM-2 xenograft tumors; 5 mg/kg PO, QD x21): 92*** %
2 | Cn1cc2c3c(c[nH]c3c1=O)CN(c1ccc(F)cc1)c1ccc(CS(C)(=O)=O)cc1-2 [Example 9, 4-(4-fluorophenyl)-10-methyl-7-((methylsulfonyl)methyl)-3,4-dihydro-1H-1,4,10-triazadibenzo[cd,f]azulen-11(10H)-one] | 1.11 | 0.721 | 0.453 |  | % TGI (OPM-2 xenograft tumors; 1.85 mg/kg PO, QD x21): 87*** %; % inhibition of LPS induced IL-6 production ([2]; mouse strain SCID): 79%
3 | Cn1cc2c3c(c[nH]c3c1=O)CN(c1ccc(F)cc1F)c1ccc(CS(C)(=O)=O)cc1-2 [Example 12, 4-(2,4-difluorophenyl)-10-methyl-7-((methylsulfonyl)methyl)-3,4-dihydro-1H-1,4,10-triazadibenzo[cd,f]azulen-11(10H)-one] | 0.472 | 4 | 1.34 |  | % TGI (OPM-2 xenograft tumors; 1.5 mg/kg IP, QD x21): 82** % and 91*** %; % TGI (OPM-2 xenograft tumors; 1.5 mg/kg PO, QD x21): 87*** %; % TGI (OPM-2 xenograft tumors; 3 mg/kg IP, QD x21): 89** %; % TGI (OPM-2 xenograft tumors; 3 mg/kg PO, 3 on 4 off x3 weeks): 81*** %; % TGI (OPM-2 xenograft tumors; 3 mg/kg PO, QD x11): 72*** %; % TGI (OPM-2 xenograft tumors; 3 mg/kg PO, QD x21): 94*** %; % inhibition of LPS induced IL-6 production ([2]; mouse strain SCID): 90%
4 | CCOC(=O)N1Cc2c[nH]c3c(=O)n(C)cc(c23)-c2cc(F)cc(F)c21 [Example 173, ethyl 5,7-difluoro-10-methyl-11-oxo-10,11-dihydro-1H-1,4,10-triazadibenzo[cd,f]azulene-4(3H)-carboxylate] | 3.14 | 19.9 | 6.72 | 87 | % TGI (OPM-2 xenograft tumors; 1.25 mg/kg PO, QD x21): 49** %
5 | Cn1cc2c3c(c(C#N)[nH]c3c1=O)CN(c1ccc(Cl)cc1)c1ccc(CS(C)(=O)=O)cc1-2 [Example 199, 4-(4-chlorophenyl)-10-methyl-7-((methylsulfonyl)methyl)-11-oxo-3,4,10,11-tetrahydro-1H-1,4,10-triazadibenzo[cd,f]azulene-2-carbonitrile] | 1.21 | 10.8 | 0.81 | 90 | % TGI (OPM-2 xenograft tumors; 1.25 mg/kg PO, QD x21): 91*** %
6 | Cn1cc2c3c(c[nH]c3c1=O)CN(c1ccccn1)c1ccc(CS(C)(=O)=O)cc1-2 [Example 207, 10-methyl-7-((methylsulfonyl)methyl)-4-(pyridin-2-yl)-3,4-dihydro-1H-1,4,10-triazadibenzo[cd,f]azulen-11(10H)-one] | 2.09 | 1.33 | 0.92 | 65 | % TGI (OPM-2 xenograft tumors; 0.25 mg/kg PO, QD x21): 60*** %; % TGI (OPM-2 xenograft tumors; 0.5 mg/kg PO, QD x21): 93*** % and 94*** %; % TGI (OPM-2 xenograft tumors; 1 mg/kg PO, QD x21): 97*** %
7 | Cn1cc2c3c(c[nH]c3c1=O)CN(c1ncc(F)cc1F)c1ccc(CS(C)(=O)=O)cc1-2 [Example 213, 4-(3,5-difluoropyridin-2-yl)-10-methyl-7-((methylsulfonyl)methyl)-3,4-dihydro-1H-1,4,10-triazadibenzo[cd,f]azulen-11(10H)-one] | 0.42 | 1.4 | 0.65 |  | % TGI (OPM-2 xenograft tumors; 0.5 mg/kg PO, QD x21): 82*** %; % TGI (OPM-2 xenograft tumors; 1 mg/kg PO, QD x21): 96*** % and 95*** %
